In US20050245534A1, “Inhibitors of the 11-beta-hydroxysteroid dehydrogenase Type 1 enzyme” (priority 2004, published 2005):

How the values were obtained:
Male CD-1 mice = experiment: Mouse Dehydrocorticosterone Challenge Model, plasma corticosterone; assay type: in vivo
Method: Male CD-1 (18-22 g) mice (Charles River, Madison, Wis.) were group housed and allowed free access to food and water. Mice are brought into a quiet procedure room for acclimation the night before the study. Animals are dosed with vehicle or compound at various times (pretreatment period) before being challenged with 11-dehydrocorticosterone (Steraloids Inc., Newport, R.I.). Thirty minutes after challenge, the mice are euthanized with CO2 and blood samples (EDTA) are obtained by cardiac puncture and immediately placed on ice. Blood samples were then spun, the plasma was removed, and the samples frozen until further analysis was performed. Corticosterone levels were obtained by ELISA (American Laboratory Prod., Co., Windham, N.H.) or HPLC/mass spectroscopy.

[1] = test system: Male B6.VLep ob(-/-) (ob/ob) mice; experiment: ob/ob Mouse Model of Type 2 Diabetes; assay type: in vivo; details: three weeks
Method: Male B6.VLep^ob(−/−) (ob/ob) mice and their lean littermates (Jackson Laboratory, Bar Harbor, Me.) were group housed and allowed free access to food (Purina 5015) and water. Mice were 6-7 weeks old at the start of each study. On day 0, animals were weighed and postprandial glucose levels determined (Medisense Precision-X™ glucometer, Abbott Laboratories). […] Animals were weighed, and postprandial glucose measurements were taken weekly throughout the study. On the last day of the study, 16 hours post dose (unless otherwise noted) the mice were euthanized via CO2, and blood samples (EDTA) were taken by cardiac puncture and immediately placed on ice. Whole blood measurements for HbA1c were taken with hand held meters (A1c NOW, Metrika Inc., Sunnyvale Calif.). Blood samples were then spun and plasma was removed and frozen until further analysis. The plasma triglyceride levels were determined according to instructions by the manufacturer (Infinity kit, Sigma Diagnostics, St. Louis Mo.).

healthy volunteers = details: seven days; cited from earlier work

CC(C(=O)NC1C2CC3CC1CC(O)(C3)C2)N1CCN(c2ccc(C(F)(F)F)cn2)CC1 (stereo not shown) [Compound F, N-[(E)-5-hydroxy-2-adamantyl]-2-{4-[5-(trifluoromethyl)pyridin-2-yl]piperazin-1-yl}propanamide]
Plasma corticosterone levels (Male CD-1 mice; 30 mpk followed by 11-DHC, pretreatment period 0.5 hours): 1297 ± 121 | Plasma corticosterone levels (Male CD-1 mice; 30 mpk followed by 11-DHC, pretreatment period 16 hours): 1402 ± 99 | Plasma corticosterone levels (Male CD-1 mice; 100 mpk followed by 11-DHC, pretreatment period 0.5 hours): 742 ± 119 | Plasma corticosterone levels (Male CD-1 mice; 100 mpk followed by 11-DHC, pretreatment period 16 hours): 1422 ± 129 | % HbA1c ([1]; 30 mpk twice daily): 7.6 ± 0.6% | Glucose ([1]; 30 mpk twice daily): 295 ± 31 mg/dL | Triglycerides ([1]; 30 mpk twice daily): 255 ± 22 mg/dL | % HbA1c ([1]; 100 mpk twice daily): 6.4 ± 0.5% | Glucose ([1]; 100 mpk twice daily): 263 ± 21 mg/dL | Triglycerides ([1]; 100 mpk twice daily): 282 ± 36 mg/dL

C[C@]12CC(=O)[C@H]3[C@@H](CCC4=CC(=O)CC[C@@]43C)[C@@H]1CC[C@@H]2C(=O)CO [Example 11-DHC, 11-dehydrocorticosterone, reference compound]
Plasma corticosterone levels (Male CD-1 mice; 11-DHC challenge without compound, pretreatment period 0.5 hours): 1478 ± 180 | Plasma corticosterone levels (Male CD-1 mice; 11-DHC challenge without compound, pretreatment period 16 hours): 1200 ± 86

CC1(C)[C@@H](OC(=O)CCC(=O)O)CC[C@]2(C)[C@H]3C(=O)C=C4[C@@H]5C[C@@](C)(C(=O)O)CC[C@]5(C)CC[C@@]4(C)[C@]3(C)CC[C@@H]12 [carbenoxolone]
reduction of IOP (healthy volunteers): 17%
